{
  "source": "patent US7579019B2",
  "about": "“Pharmaceutical carrier device suitable for delivery of pharmaceutical compounds to mucosal surfaces” (priority 1997, dated 2009)",
  "assay": "systemic availability study in dogs, testosterone, RIA method (Example 40)",
  "format": "in vivo",
  "settings": "female, bred hound, dog, plasma, other: buccal (film disc applied to the buccal mucosa), 0.8 mg per disc, mean of three dogs, buccal ½ inch disc of Example 39 film, 0.8 mg testosterone per disc, read-out: systemic plasma level, Mean",
  "text": "The films obtained via Examples 38 and 39 are die-cut in ½ inch diameter discs to be characterized and to be used for a systemic availability study in three dogs (20-25 kg spayed female bred hounds). One disc of the film to be evaluated is applied to the inside of the mouth on the buccal mucosa. A slight pressure is applied for 10 seconds. Then, the oral cavity is examined to assure adherence of the film to the mucosa and over the course of the study, to monitor the erosion of the discs. Using an indwelling jugular catheter, blood samples are collected at specific intervals. The serum is characterized by an ELISA assay in the case of albuterol sulfate and by an RIA method for the testosterone study.\nAfter application of ½ inch diameter discs, systemic plasma levels obtained at different intervals are given in nanograms per milliliter for the mean of the three dogs.",
  "data": [
    {"smiles": "C[C@]12CC[C@H]3[C@@H](CCC4=CC(=O)CC[C@@]43C)[C@@H]1CC[C@@H]2O", "note": "[testosterone]", "values": [
      {"measurement": "concentration at 0 min", "setting": "time 0 minutes", "value": 0, "unit": "ng/mL"},
      {"measurement": "concentration at 5 min", "setting": "time 5 minutes", "value": 2.21, "unit": "ng/mL"},
      {"measurement": "concentration at 10 min", "setting": "time 10 minutes", "value": 4.68, "unit": "ng/mL"},
      {"measurement": "concentration at 15 min", "setting": "time 15 minutes", "value": 3.81, "unit": "ng/mL"},
      {"measurement": "concentration at 30 min", "setting": "time 30 minutes", "value": 2.87, "unit": "ng/mL"},
      {"measurement": "concentration at 60 min", "setting": "time 60 minutes", "value": 3.73, "unit": "ng/mL"},
      {"measurement": "concentration at 90 min", "setting": "time 90 minutes", "value": 4.82, "unit": "ng/mL"},
      {"measurement": "concentration at 120 min", "setting": "time 120 minutes", "value": 7.14, "unit": "ng/mL"},
      {"measurement": "concentration at 150 min", "setting": "time 150 minutes", "value": 3.2, "unit": "ng/mL"},
      {"measurement": "concentration at 180 min", "setting": "time 180 minutes", "value": 0.62, "unit": "ng/mL"},
      {"measurement": "concentration at 240 min", "setting": "time 240 minutes", "value": 0.18, "unit": "ng/mL"},
      {"measurement": "concentration at 360 min", "setting": "time 360 minutes", "value": 0.12, "unit": "ng/mL"},
      {"measurement": "concentration at 480 min", "setting": "time 480 minutes", "value": 0.02, "unit": "ng/mL"},
      {"measurement": "concentration at 720 min", "setting": "time 720 minutes", "value": 0.01, "unit": "ng/mL"}
    ]}
  ]
}
